Common to all, as to assay type: cell-based, human
Assay [1] has as its system hiPSC-CM monolayers. In words: 96 well optical mapping of intracellular calcium flux in hiPSC-CM monolayers under IKr blockade. The settings on record: 100 nmol L^-1 E4031. On the procedure:
Briefly, monolayers were loaded with the intracellular Ca^2+ indicator, rhod-2AM (10 μmol L-1, Life Technologies). After a 30 minute incubation time, the cells were washed in Hanks balanced salt solution (HBSS, Life Technologies) for an additional 30 minutes before optical mapping recordings. […] Movies were filtered in both the time and space domain and conduction velocity (CV) was measured as described previously (Hou L, et al., Circulation Research. 2010;107:1503-1511, herein incorporated by reference in its entirety).
Small glass coverslips to fit into a 96 well format dish are not readily available so here plastic was used as the rigid comparator for PDMS.
A general note: Calcium flux is commonly read through the fluorescence of an indicator in the cells.

For assay [2], the system named is hiPSC-CM monolayers. In words: Hypertrophic growth and monolayer formation of hiPSC-CMs on glass or PDMS coverslips with FAK inhibitor. As for the experimental part: In a second set of experiments hiPSC-CM monolayers were fixed for immunocytochemistry following optical mapping recordings of impulse propagation as recently described (Lee P, et al., Circulation Research. 2012;110:1556-1563, herein incorporated by reference in its entirety). Briefly, cell monolayers were washed with PBS and then fixed with 4% paraformaldehyde for 10 minutes and rinsed twice before blocking with 10% normal donkey serum in PBS plus 0.1% Triton X-100 (Sigma) for 1.5 hours at room temperature. Primary antibodies were used to detect α-actinin (1:500, Sigma) in the cardiac sarcomeres and Cx43 (1:100, Millipore) and N-cadherin (1:200, BD Bioscience) at the intercellular junctions. The primary antibodies were added to 5% donkey serum in PBS plus 0.1% Triton X-100 and incubated overnight at 4° C. Subsequently, cells were washed three times in PBS plus 0.1% TRITON X-100. […] Protein localization was examined by laser scanning confocal microscopy with sequential laser firing for multiple fluorophores (Nikon AIR, Melville, N.Y.). iPSC-CM cross sectional area was calculated in NIS Elements software using N-cadherin staining of the cell membranes.
Integrins are transmembrane heterodimeric receptors essential for providing cell-extracellular matrix adhesion, cellular structural organization and transduction of mechanical signals from the extracellular matrix into biochemical signals in cardiomyocytes (Ross R S, et al., Circulation Research. 2001;88:1112-1119; Israeli-Rosenberg S, et al., The FASEB Journal. 2015;29:374-384; Israeli-Rosenberg S, et al., Circulation Research. 2014;114:572-586). β1 integrins are abundant in the adult heart and participate in the hypertophic response in rodent ventricular myoyctes (Ross et al., Circulation Research. […] Finally, the role of FAK activation in the hypertrophic response of hiPSC-CMs to the soft cell culture environment on PDMS was determined (FIG. 8D and FIG. 14).

For assay [3], the system named is hiPSC-CMs (iCell). In words: Western blotting for mature myofilament proteins (cTnI, β-MyHC) in hiPSC-CMs cultured with FAK inhibitor. In general terms: In western blotting, separated proteins are transferred to a membrane and probed.
Setting [4] is: 10 μmol L^-1 FAK inhibitor-14, cultured on PDMS.

Consider `Cc1cccc(CCN2CCC(C(=O)c3ccc(NS(C)(=O)=O)cc3)CC2)n1` [E4031], for which the “CaTD80 post E4031” value in assay [1] (PDMS bottom dishes, n=5, pre 579.8±13.9 ms) stood at 780.1 ± 74.1 ms; in assay [1] (plastic bottom dishes, n=8, pre 605.9±24.3 ms), 1873.8 ± 278.9 ms. The “effect on beat frequency and CaTD80 (in words)” value in assay [1] (PDMS bottom well) is “more modest effect”. Also, the “reduction of spontaneous beating frequency” value was roughly 20% in assay [1] (monolayers on matrigel coated PDMS, n=5) and roughly 50% in assay [1] (monolayers on rigid plastic (matrigel coated), n=8). In addition, the “effect on spontaneous beating frequency and CaTD80 (in words)” value in assay [1] (rigid plastic bottom dishes (matrigel coated)) was “very significant impact”.

As for `Nc1cc(N)c(N)cc1N` [FAK inhibitor-14], in assay [2] (100 μmol L^-1, both Glass and PDMS), the “monolayer formation and hiPSC-CM expansion in culture” value was “prevented monolayer formation and hiPSC-CM expansion in culture”. Moreover, the “hypertrophic growth of hiPSC-CMs” value in assay [2] (PDMS coverslips) is “prevented hypertrophic growth”. The “effect on hiPSC-CMs grown on glass coverslips” value in assay [2] (glass coverslips, effect only at 100 μmol L^-1) was “only affected at very high dose”. Besides, in assay [3] (setting [4]), the cTnI expression result is “failed to express cTnI” and the β-MyHC expression result was “expressed less β-MyHC”. In assay [3] (FIG. 8C legend), the “expression of mature myofilament protein isoforms including cTnI and β-MyHC” value was “prevents expression”.

(Values after patent US20150329825A1, “COMPOSITIONS AND METHODS EMPLOYING STEM CELL-DERIVED CARDIOMYOCYTES” (THE REGENTS OF THE UNIVERSITY OF MICHIGAN, priority 2014, published 2015).)
